Reference: patent US20150150990A1, “ORAL PHARMACEUTICAL COMPOSITIONS IN A SOLID DISPERSION COMPRISING PREFERABLY POSACONAZOLE AND HPMCAs” (Merck Sharp & Dohme Corp., priority 2008, published 2015)
Converted amounts (≈) assume the structure as drawn.

Assay: Solubility of posaconazole free base
Format: physicochemical
Protocol: The provision of a solid composition comprising posaconazole suitable for preparing a solid dosage form for oral administration has heretofore been hampered by the poor solubility and weak basicity of the posaconazole free-base compound. Posaconazole is soluble at low pH. For example, in the environment of the stomach (approximately pH 1) posaconazole free base has a solubility of approximately 0.8 mg/mL. However, when posaconazole dissolved in the stomach fluids reaches the environment of the intestines (typically less acidic than about pH 6.4) a substantial amount of the dissolved posaconazole precipitates, hindering absorption in the intestines. It has been determined that in environments where the pH is about pH 6.4 or more basic the solubility of posaconazole free base is less than about 1 microgram/mL.

solubility (pH 6.4, pH about 6.4 or more basic): < 1 µg/mL
solubility (simulated gastric fluid, environment of the stomach, approximately pH 1): ~800 µg/mL (≈ 1140 µM)
Compound: CC[C@@H]([C@H](C)O)n1ncn(-c2ccc(N3CCN(c4ccc(OC[C@@H]5CO[C@@](Cn6cncn6)(c6ccc(F)cc6F)C5)cc4)CC3)cc2)c1=O [posaconazole free base, posaconazole]
